Source: US20250129083A1, “IMIDAZOTETRAZINE COMPOUNDS AND TREATMENT OF TMZ-RESISTANT CANCERS” (THE BOARD OF TRUSTEES OF THE UNIVERSITY OF ILLINOIS, priority 2022, published 2025)
Read-outs that look alike come from different tables or passages of the source.

What was measured:
[1] = Hepatic metabolism: stability in mouse liver microsomes; format: in vitro ADME; conditions: for Stability (2 h, with MLM): percentage remaining relative to t0, mouse liver microsomes, SEM, n ≥ 2; for Stability (2 h, no MLM): percentage remaining, microsomes replaced with PBS
T98G GBM cell line = assay: Cell viability assay (Alamar Blue, 7 days), T98G; format: cell-based, human
Experimental: (§1) Cell Culture and Reagents. All cell lines were grown in a 37° C., 5% CO2, humidified environment, in media containing 1% penicillin/streptomycin. Stable cell line generation of GL261 MGMT+ was purchased from Creative Biogene. Cell culture conditions are as follows: cell lines U87, T98G, and RKO were grown in EMEM with 10% FBS. D54, GL261, GL261 MGMT+, and U118MG cell lines were grown in DMEM with 10% FBS. HCT116 cells were grown in RMPI with 10% FBS. D341 Med cells were grown in EMEM with 20% FBS. Temozolomide (TMZ) was purchased from AK Scientific. TMZ analogues were synthesized as described below. Compounds were dissolved in DMSO (1% final concentration, Fisher Chemical) for cell culture studies.
(§2) Cell Viability Assays. Cells were harvested, seeded in a 96-well plate and allowed to adhere. After three hours, compound was added to each well in DMSO (1% final concentration). Cells were incubated for seven days (unless otherwise noted) before viability was assessed by the Alamar Blue assay. Raptinal (20 μM) was used as a dead control.

U87 GBM cell line = assay: Cell viability assay (Alamar Blue, 7 days), U87; format: cell-based, human
Experimental: as §1, §2
Plated 1500 c/w for GL261; 600 c/w for U87; 600 c/w for U118MG; 1500 c/w for GL261 MGMT+ Incubated ovn and added 1 μL of compound in DMSO the next day. Incubated over 7 days; added Alamar Blue to assess cell viability and used 10 μM Raptinal as dead control. Error is SEM, n=3.

[2] = tested on: linearized pBR322 plasmid DNA; conditions: purified linearized DNA, 15 hours at 37° C.
[3] = Hydrolytic stability studies; format: physicochemical; conditions: PBS; for half-life at 100 μM: 37° C.; for Hydrolytic stability: percentage of prodrug remaining after 2 hours: pH 7.4, 37° C., HPLC
Experimental: Hydrolytic Stability Studies. Compound (100 μM) was incubated at 37° C. in PBS at pH 7.4 (unless otherwise noted). At the indicated time point, an aliquot was collected and analyzed by HPLC. Compound peaks were integrated and compared to the integration at to calculate the percentage of prodrug remaining.

[4] = tested on: expanded panel of GBM cell lines with or without MGMT expression; assay: Cell viability in expanded panel of GBM cell lines; format: cell-based; conditions: 168 h; all cell lines, with or without MGMT; 7 days; read-out: IC50 values across expanded panel of GBM cell lines
Experimental: FIG. 1A-C. Selection and evaluation of MGMT-independent imidazotetrazines. (A) IC50 values (M, 7 days) of TMZ and compound 10 in an expanded panel of GBM cell lines. Cell viability was assessed via the Alamar Blue assay, n≥3, error is SEM. (B) Hydrolytic stability of TMZ at pH 7, 7.4, and 8. Percentage of prodrug remaining was quantified by HPLC, n≥2. (C) Hydrolytic stability of compound 10 at pH 7, 7.4, and 8. Percentage of prodrug remaining was quantified by HPLC, n≥2.
FIG. 2A-F. (A) 7 day IC50 values (M) of compound 10 and CPZ in an expanded panel of GBM cell lines. Cell viability was assessed via the Alamar Blue assay, n≥3, error is SEM. (B-E) 7 day dose-response curves of TMZ and CPZ in cell lines with variable MGMT and MMR status. Error is SEM, n≥3. (F) Killing kinetics of CPZ compared to TMZ in the U87 cell line. Cells were treated with compound once and viability was assessed every 24 hours via Alamar Blue assay. Error is SEM, n≥2.
as §2

in vivo = conditions: CD-1 IGS, mouse, brain and serum, iv, 25 mg/kg
[5] = Homo sapiens, T98G, 168 h, MGMT (+), Alamar Blue, error SEM, n ≥ 3, read-out: Seven-day IC50, T98G
[6] = Homo sapiens, 168 h, MGMT (−), Alamar Blue, error SEM, n ≥ 3, read-out: Seven-day IC50, U87
[7] = MGMT (+), Alamar Blue, error SEM, n ≥ 3, read-out: Seven-day IC50, T98G
[8] = Homo sapiens, T98G, 168 h, MGMT (+) MMR (+), read-out: Activity, T98G
[9] = Homo sapiens, 168 h, MGMT (−) MMR (+), 600 c/w, SEM, n=3, read-out: Activity, U87

IC50 (U87 GBM cell line; [6])	Structure (SMILES)	IC50 (T98G GBM cell line; [5])	other results
	CC#CCn1nnc2c(C(N)=O)ncn2c1=O [But]		Stability (2 h, with MLM) [1]: 89 ± 3%; Stability (2 h, no MLM) [1]: 85 ± 1%
> 1000 µM	NC(=O)c1ncn2c(=O)[nH]nnc12 [Compound 1, 4-oxo-3,4-dihydroimidazo[5,1-d][1,2,3,5]tetrazine-8-carboxamide]	> 1000 µM	
470 µM	CCn1nnc2c(C(N)=O)ncn2c1=O [Compound 2, 3-ethyl-4-oxo-3,4-dihydroimidazo[5,1-d][1,2,3,5]tetrazine-8-carboxamide]	> 1000 µM	
> 1000 µM	CC(C)n1nnc2c(C(N)=O)ncn2c1=O [Compound 4, 3-isopropyl-4-oxo-3,4-dihydroimidazo[5,1-d][1,2,3,5]tetrazine-8-carboxamide]	> 1000 µM	
570 ± 30 µM	CC(C)(C)n1nnc2c(C(N)=O)ncn2c1=O [Compound 5, 3-(tert-butyl)-4-oxo-3,4-dihydroimidazo[5,1-d][1,2,3,5]tetrazine-8-carboxamide]	> 1000 µM	
> 1000 µM	CC(C)(C)Cn1nnc2c(C(N)=O)ncn2c1=O [Compound 6, 3-neopentyl-4-oxo-3,4-dihydroimidazo[5,1-d][1,2,3,5]tetrazine-8-carboxamide]	> 1000 µM	
	COc1ccc(-n2nnc3c(C(N)=O)ncn3c2=O)cc1 [Compound 7, 3-(4-methoxyphenyl)-4-oxo-3,4-dihydroimidazo[5,1-d][1,2,3,S]tetrazine-8-carboxamide]	< 100 µM	IC50 (T98G GBM cell line; [7]): 60 ± 10 µM
29 µM	C#CCn1nnc2c(C(N)=O)ncn2c1=O [Compound 10, 4-oxo-3-(prop-2-yn-1-yl)-3,4-dihydroimidazo[5,1-d][1,2,3,5]tetrazine-8-carboxamide]	77 µM	half-life at 100 μM ([3]; pH 7, calculated from hydrolytic stability data, read-out: Half-life, pH 7): 97 ± 5 min; Hydrolytic stability: percentage of prodrug remaining after 2 hours [3]: 8%; half-life at 100 μM ([3]; pH 7.4, calculated from hydrolytic stability data, read-out: Half-life, pH 7.4): ~30 min; half-life at 100 μM ([3]; pH 8, calculated from hydrolytic stability data, read-out: Half-life, pH 8): 15 ± 1 min; IC50 [4]: < 100 µM; Kp at 15 min (in vivo): 0.06 ± 0.01
< 40 µM	NC(=O)c1ncn2c(=O)n(COc3ccccc3)nnc12 [Compound 11, 4-oxo-3-(phenoxymethyl)-3,4-dihydroimidazo[5,1-d][1,2,3,5]tetrazine-8-carboxamide]	< 40 µM	IC50 (T98G GBM cell line; [7]): 35 ± 1 µM; IC50 (U87 GBM cell line; MGMT (−), Alamar Blue, error SEM, n ≥ 3, read-out: Seven-day IC50, U87): 21 ± 3 µM
240 ± 20 µM	NC(=O)c1ncn2c(=O)n(CNC(=O)c3ccccc3)nnc12 [Compound 12, 3-(benzamidomethyl)-4-oxo-3,4-dihydroimidazo[5,1-d][1,2,3,5]tetrazine-8-carboxamide]	580 ± 100 µM	
	C#CCn1nnc2c(C(=O)NC)ncn2c1=O [Compound 16, N-methyl-4-oxo-3-(prop-2-yn-1-yl)-3,4-dihydroimidazo[5,1-d][1,2,3,5]tetrazine-8-carboxamide]		Hydrolytic stability: percentage of prodrug remaining after 2 hours [3]: 18%; IC50 (T98G GBM cell line; [8]): 87 ± 7 µM; IC50 (U87 GBM cell line; [9]): 40 ± 20 µM
	C#CCn1nnc2c(C(=O)N(C)C)ncn2c1=O [Compound 17, N,N-dimethyl-4-oxo-3-(prop-2-yn-1-yl)-3,4-dihydroimidazo[5,1-d][1,2,3,5]tetrazine-8-carboxamide]		Hydrolytic stability: percentage of prodrug remaining after 2 hours [3]: 27%; IC50 (T98G GBM cell line; [8]): 40 ± 5 µM; IC50 (U87 GBM cell line; [9]): 20 ± 5 µM
30 µM	NC(=O)c1ncn2c(=O)n(CCCl)nnc12 [MTZ, 3-(2-chloroethyl)-4-oxo-3,4-dihydroimidazo[5,1-d][1,2,3,5]tetrazine-8-carboxamide, reference compound]	85 ± 9 µM	
	CN(C)C(=O)c1ncn2c(=O)n(C)nnc12 [N,N-DiMe-TMZ, reference compound]		Stability (2 h, with MLM) [1]: 81 ± 2%; Stability (2 h, no MLM) [1]: 92 ± 3%
	C=CC=O [acrolein, reference compound]		DNA alkylation (streaking on gel) [2]: no evidence of alkylation; DNA interstrand cross-linking [2]: interstrand cross-linking

Structure (SMILES)	IC50 (U87 GBM cell line; [6])	IC50 (T98G GBM cell line; [5])	other results
CCCn1nnc2c(C(N)=O)ncn2c1=O [Compound 3, 4-oxo-3-propyl-3,4-dihydroimidazo[5,1-d][1,2,3,5]tetrazine-8-carboxamide]	> 1000 µM	> 1000 µM	DNA alkylation (streaking on gel) [2]: No evidence of DNA alkylation
C=CCn1nnc2c(C(N)=O)ncn2c1=O [Compound 9, 3-allyl-4-oxo-3,4-dihydroimidazo[5,1-d][1,2,3,5]tetrazine-8-carboxamide]	220 ± 60 µM	320 ± 10 µM	DNA alkylation (streaking on gel) [2]: No evidence of DNA alkylation
CC#CCn1nnc2c(C(N)=O)ncn2c1=O [Compound 19, 3-(but-2-yn-1-yl)-4-oxo-3,4-dihydroimidazo[5,1-d][1,2,3,5]tetrazine-8-carboxamide]	37 µM	110 µM	DNA alkylation (streaking on gel) [2]: Trace DNA alkylation; DNA interstrand cross-linking [2]: definitively absent
